From US9040524B2, “Antifungal 5,6-dihydro-4H-pyrrolo[1,2-a][1,4]-benzodiazepines and 6H-pyrrolo[1,2-a][1,4]benzodiazepines substituted with bicycle benzene derivatives” (JANSSEN PHARMACEUTICA NV, priority 2010, dated 2015)

Legend:
Format in all cases: cell-based
[1] = system: Microsporum canis; assay: Antifungal activity in vitro, resazurin growth inhibition screen: Microsporum canis; conditions: Microsporum canis B68128; for IC50: read-out: Inf. B pIC50 (converted)
Outline: (§1)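 Compound serial dilutions (2- or 4-fold), highest in-test concentration 64 μM, in U-bottom 96-well plates. Each well inoculated with 10^3 cfu fungus in RPMI-MOPS medium; growth read by resazurin against drug-free (100%) and medium-only (0%) controls.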

[2] = system: Cryptococcus neoformans; assay: Antifungal activity in vitro, resazurin growth inhibition screen: Cryptococcus neoformans; conditions: Cryptococcus neoformans B66663; for IC50: read-out: Inf. F pIC50 (converted)
Outline: as §1

[3] = system: Rhizomucor miehei; assay: Antifungal activity in vitro, resazurin growth inhibition screen: Rhizomucor miehei; conditions: Rhizomucor miehei IHEM13391; for IC50: read-out: Inf. K pIC50 (converted)
Protocol: (§2) The standard susceptibility screen was performed in 96-well plates (U-bottom, Greiner Bio-One). Serial dilutions (2-fold or 4-fold) of 20 mM compound stock solutions were made in 100% DMSO, followed by an intermediate dilution step in water. These serial dilutions (10 μl) were then spotted onto test-plates that could be stored in the dark at 4° C. for a maximum period of 2 weeks. An adequate broad dose-range was included with 64 μM as the highest in-test concentration. […] The different fungal species/isolates (Table 3a) were cryopreserved and 1/1000 diluted in medium just prior to use. A standard inoculum of 200 μl containing 10^3 colony-forming unit (cfu) was then added to each well. A positive control (100% growth=fungal culture without antifungal) and a negative control (0% growth=RPMI-MOPS medium) were included on each plate.

[4] = system: Sporothrix schenkii; assay: Antifungal activity in vitro, resazurin growth inhibition screen: Sporothrix schenkii; conditions: Sporothrix schenkii B62482; for IC50: read-out: Inf. A pIC50 (converted)
Outline: as §1

[5] = system: Aspergillus fumigatus; assay: Antifungal activity in vitro, resazurin growth inhibition screen: Aspergillus fumigatus; conditions: Aspergillus fumigatus B42928; for IC50: read-out: Inf. E pIC50 (converted)
Outline: as §1

[6] = system: Candida parapsilosis; assay: Antifungal activity in vitro, resazurin growth inhibition screen: Candida parapsilosis; conditions: Candida parapsilosis B66126; for IC50: Lodderomyces parapsilosis, read-out: Inf. D pIC50 (converted)
Outline: as §1

[7] = system: Scedosporium prolificans; assay: Antifungal activity in vitro, resazurin growth inhibition screen: Scedosporium prolificans; conditions: Scedosporium prolificans IHEM21157; for IC50: Lomentospora prolificans, read-out: Inf. I pIC50 (converted)
Protocol: as §2

[8] = system: Trichophyton mentagrophytes; assay: Antifungal activity in vitro, resazurin growth inhibition screen: Trichophyton mentagrophytes; conditions: Trichophyton mentagrophytes B70554; for IC50: read-out: Inf. G pIC50 (converted)
Outline: as §1

[9] = system: Scedosporium apiospermum; assay: Antifungal activity in vitro, resazurin growth inhibition screen: Scedosporium apiospermum; conditions: Scedosporium apiospermum IHEM3817; for IC50: read-out: Inf. H pIC50 (converted)
Protocol: as §2

[10] = system: Rhizopus oryzae; assay: Antifungal activity in vitro, resazurin growth inhibition screen: Rhizopus oryzae; conditions: Rhizopus oryzae IHEM5223; for IC50: Rhizopus arrhizus, read-out: Inf. J pIC50 (converted)
Protocol: as §2

[11] = system: Trichophyton rubrum; assay: Antifungal activity in vitro, resazurin growth inhibition screen: Trichophyton rubrum; conditions: Trichophyton rubrum B68183; for IC50: read-out: Inf. C pIC50 (converted)
Outline: as §1

## Cl.Clc1cccc2c1CNC(c1ccc3c(c1)CCOC3)c1cccn1-2 (stereo not shown) [Compound 28, 7-chloro-4-(3,4-dihydro-1H-2-benzopyran-6-yl)-5,6-dihydro-4H-pyrrolo[1,2-a]-[1,4]benzodiazepine .HCl]
[1]
  Inf. B pIC50: 6.24
[2]
  Inf. F pIC50: 4.71
[3]
  Inf. K pIC50: 4.39
[4]
  Inf. A pIC50: <4.19
[5]
  Inf. E pIC50: 5.99
[6]
  Inf. D pIC50: 5.53
[7]
  Inf. I pIC50: 4.63
[8]
  Inf. G pIC50: 6.29
[9]
  Inf. H pIC50: 4.97
[10]
  Inf. J pIC50: <4.19
[11]
  Inf. C pIC50: 6.66

## Clc1cccc2c1CN=C(c1ccc3c(c1)CCOC3)c1cccn1-2 [Compound 37, 7-chloro-4-(3,4-dihydro-1H-2-benzopyran-6-yl)-6H-pyrrolo[1,2-a][1,4]benzo-diazepine]
[1]
  Inf. B pIC50: 6.62
[2]
  Inf. F pIC50: 5.88
[3]
  Inf. K pIC50: <4.19
[4]
  Inf. A pIC50: 5.26
[5]
  Inf. E pIC50: 6.77
[6]
  Inf. D pIC50: 5.79
[7]
  Inf. I pIC50: 5.85
[8]
  Inf. G pIC50: 6.47
[9]
  Inf. H pIC50: 4.48
[10]
  Inf. J pIC50: <4.19
[11]
  Inf. C pIC50: 6.89

## Fc1cccc2c1CN=C(c1ccc3c(c1)CCOC3)c1cccn1-2 [Compound 39, 4-(3,4-dihydro-1H-2-benzopyran-6-yl)-7-fluoro-6H-pyrrolo[1,2-a][1,4]benzo-diazepine]
[1]
  Inf. B pIC50: 6.36
[2]
  Inf. F pIC50: 5.21
[3]
  Inf. K pIC50: 4.38
[4]
  Inf. A pIC50: 4.95
[5]
  Inf. E pIC50: 6.77
[6]
  Inf. D pIC50: 5.83
[7]
  Inf. I pIC50: 5.76
[8]
  Inf. G pIC50: 6.54
[9]
  Inf. H pIC50: 5.40
[10]
  Inf. J pIC50: <4.19
[11]
  Inf. C pIC50: 6.89

## Clc1cc(Cl)c2c(c1)CN=C(c1ccc3c(c1)CCO3)c1cccn1-2 [Compound 48, 8,10-dichloro-4-(2,3-dihydro-5-benzofuranyl)-6H-pyrrolo[1,2-a][1,4]benzo-diazepine]
[1]
  Inf. B pIC50: 6.30
[2]
  Inf. F pIC50: 5.70
[3]
  Inf. K pIC50: <4.19
[4]
  Inf. A pIC50: 5.40
[5]
  Inf. E pIC50: 5.00
[6]
  Inf. D pIC50: <4.19
[7]
  Inf. I pIC50: 5.79
[8]
  Inf. G pIC50: 6.29
[9]
  Inf. H pIC50: 4.94
[10]
  Inf. J pIC50: <4.19
[11]
  Inf. C pIC50: 6.78

## Cl.O=C1CCc2cc(C3NCc4c(Cl)cccc4-n4cccc43)ccc21 (stereo not shown) [Compound 51, 5-(7-chloro-5,6-dihydro-4H-pyrrolo[1,2-a][1,4]benzodiazepin-4-yl)-2,3-dihydro-1H-inden-1-one .HCl]
[1]
  Inf. B pIC50: 5.59
[2]
  Inf. F pIC50: 4.74
[3]
  Inf. K pIC50: 4.29
[4]
  Inf. A pIC50: 4.46
[5]
  Inf. E pIC50: 5.24
[6]
  Inf. D pIC50: 4.91
[7]
  Inf. I pIC50: 5.32
[8]
  Inf. G pIC50: 5.32
[9]
  Inf. H pIC50: 4.67
[10]
  Inf. J pIC50: <4.19
[11]
  Inf. C pIC50: 5.84

## O=C1CCCc2cc(C3=NCc4c(F)cccc4-n4cccc43)ccc21 [Compound 59, 6-(7-fluoro-6H-pyrrolo[1,2-a][1,4]benzodiazepin-4-yl)-3,4-dihydro-1(2H)-naphthalenone]
[1]
  IC50: 372 nM
[2]
  IC50: 1120 nM
[3]
  IC50: 1480 nM
[4]
  IC50: 4270 nM
[5]
  IC50: 398 nM
[6]
  IC50: 2750 nM
[7]
  IC50: 1480 nM
[8]
  IC50: 339 nM
[9]
  IC50: 741 nM
[10]
  IC50: > 12900 nM
[11]
  IC50: 129 nM

## FC1(F)Oc2ccc(C3=NCc4c(Cl)cccc4-n4cccc43)cc2O1 [Compound 74, 7-chloro-4-(2,2-difluoro-1,3-benzodioxol-5-yl)-6H-pyrrolo[1,2-a][1,4]benzo-diazepine]
[1]
  Inf. B pIC50: 6.87
[2]
  Inf. F pIC50: <4.19
[3]
  Inf. K pIC50: <4.19
[4]
  Inf. A pIC50: <4.19
[5]
  Inf. E pIC50: 7.08
[6]
  Inf. D pIC50: <4.19
[7]
  Inf. I pIC50: 7.05
[8]
  Inf. G pIC50: 6.58
[9]
  Inf. H pIC50: 5.5
[10]
  Inf. J pIC50: <4.19
[11]
  Inf. C pIC50: 7.39

## FC1(F)Oc2ccc(C3=NCc4ccc(Cl)cc4-n4cccc43)cc2O1 [Compound 75, 9-chloro-4-(2,2-difluoro-1,3-benzodioxol-5-yl)-6H-pyrrolo[1,2-a][1,4]benzo-diazepine]
[1]
  Inf. B pIC50: 5.74
[2]
  Inf. F pIC50: 5.84
[3]
  Inf. K pIC50: <4.19
[4]
  Inf. A pIC50: 4.85
[5]
  Inf. E pIC50: 6.24
[6]
  Inf. D pIC50: 5.09
[7]
  Inf. I pIC50: <4.19
[8]
  Inf. G pIC50: 6.42
[9]
  Inf. H pIC50: <4.19
[10]
  Inf. J pIC50: <4.19
[11]
  Inf. C pIC50: 6.85

## FC1(F)Oc2ccc(C3=NCc4cccc(Cl)c4-n4cccc43)cc2O1 [Compound 76, 10-chloro-4-(2,2-difluoro-1,3-benzodioxol-5-yl)-6H-pyrrolo[1,2-a][1,4]benzo-diazepine]
[1]
  Inf. B pIC50: 6.70
[2]
  Inf. F pIC50: 5.82
[3]
  Inf. K pIC50: 4.98
[4]
  Inf. A pIC50: 5.69
[5]
  Inf. E pIC50: 5.94
[6]
  Inf. D pIC50: 5.18
[7]
  Inf. I pIC50: 5.04
[8]
  Inf. G pIC50: 6.38
[9]
  Inf. H pIC50: 5.13
[10]
  Inf. J pIC50: 4.57
[11]
  Inf. C pIC50: 6.82

## Fc1cccc2c1CN=C(c1ccc3c(c1)OC(F)(F)O3)c1cccn1-2 [Compound 77, 4-(2,2-difluoro-1,3-benzodioxol-5-yl)-7-fluoro-6H-pyrrolo[1,2-a][1,4]benzo-diazepine]
[1]
  IC50: 135 nM
[2]
  IC50: 5370 nM
[3]
  IC50: > 64600 nM
[4]
  IC50: 3550 nM
[5]
  IC50: 56.2 nM
[6]
  IC50: 3390 nM
[7]
  IC50: 1740 nM
[8]
  IC50: 115 nM
[9]
  IC50: 22400 nM
[10]
  IC50: 12000 nM
[11]
  IC50: 19.5 nM

## Fc1cc(F)c2c(c1)-n1cccc1C(c1ccc3c(c1)OC(F)(F)O3)=NC2 [Compound 78, 4-(2,2-difluoro-1,3-benzodioxol-5-yl)-7,9-difluoro-6H-pyrrolo[1,2-a][1,4]benzo-diazepine]
[1]
  Inf. B pIC50: 6.26
[2]
  Inf. F pIC50: <4.19
[3]
  Inf. K pIC50: <4.19
[4]
  Inf. A pIC50: 5.28
[5]
  Inf. E pIC50: 6.44
[6]
  Inf. D pIC50: 5.64
[7]
  Inf. I pIC50: 5.98
[8]
  Inf. G pIC50: 6.24
[9]
  Inf. H pIC50: 4.19
[10]
  Inf. J pIC50: <4.19
[11]
  Inf. C pIC50: 6.85
